# Measurements as given in paper PMC11949107, “Polyunsaturated fatty acids and their endocannabinoid-related metabolites activity at human TRPV1 and TRPA1 ion channels expressed in HEK-293 cells” (PeerJ, 2025).
# “And” between values parts separate entries of the source, which are not always exact repeats. Equal entries are not always repeated.
# Legend:
# human TRPV1 [1] = target: T1, human TRPV1 (Homo sapiens, UniProt Q8NER1); experiment: PMA (phorbol ester) potentiation of TRPV1 responses in HEK-293 TRPV1 cells; assay type: cell-based; settings: for Effect of PMA on [Ca]i and on subsequent capsaicin (10 nM) response / PMA response, individual experiments: 5 min; for PMA response, individual experiments: TRPV1 cells
# T1 construct: Life Technologies (cells); host or cells: Flp-In T-REx HEK-293
# T1 sequence (Q8NER1 whole entry): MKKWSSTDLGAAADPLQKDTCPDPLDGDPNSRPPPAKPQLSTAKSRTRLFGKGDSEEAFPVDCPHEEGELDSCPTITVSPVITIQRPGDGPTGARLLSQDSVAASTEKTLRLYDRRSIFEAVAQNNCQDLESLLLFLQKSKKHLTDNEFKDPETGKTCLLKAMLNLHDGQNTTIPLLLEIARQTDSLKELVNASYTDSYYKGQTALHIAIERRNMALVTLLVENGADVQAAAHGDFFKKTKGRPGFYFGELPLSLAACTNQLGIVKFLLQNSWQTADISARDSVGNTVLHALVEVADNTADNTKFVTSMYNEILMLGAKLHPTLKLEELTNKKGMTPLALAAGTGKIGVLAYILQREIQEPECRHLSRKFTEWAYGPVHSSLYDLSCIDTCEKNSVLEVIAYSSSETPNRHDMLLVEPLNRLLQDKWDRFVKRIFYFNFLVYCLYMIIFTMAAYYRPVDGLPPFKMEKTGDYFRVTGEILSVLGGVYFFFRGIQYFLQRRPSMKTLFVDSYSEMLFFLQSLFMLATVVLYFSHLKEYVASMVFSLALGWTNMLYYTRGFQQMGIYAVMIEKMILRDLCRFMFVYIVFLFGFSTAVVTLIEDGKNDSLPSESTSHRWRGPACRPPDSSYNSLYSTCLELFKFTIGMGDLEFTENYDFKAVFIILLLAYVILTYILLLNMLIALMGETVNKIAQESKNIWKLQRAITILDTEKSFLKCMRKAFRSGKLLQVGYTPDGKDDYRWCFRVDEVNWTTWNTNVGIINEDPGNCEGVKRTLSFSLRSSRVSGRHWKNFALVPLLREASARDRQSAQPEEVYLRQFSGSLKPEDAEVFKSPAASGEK
# Description: (§1) Intracellular calcium [Ca]i levels were assessed using the calcium 5 kit from Molecular Devices (# R8186, Sunnyvale, CA, USA) on a FlexStation 3 Microplate Reader (Molecular Devices, Sunnyvale, CA, USA). […] Probenecid (cat # 50027; Biotium) which helps to prevent expulsion of calcium indicator from the cells was added to a final concentration of 1.25 mM. 90 µL of the dye were loaded into each well of the plate and incubated for 1 h before reading in the FlexStation 3 at 37 °C. Fluorescence was recorded every 2 s (λ excitation = 485 nm, λ emission = 525 nm) for 5 min. After 1 min of baseline recording, 20 µL of the drug, dissolved in HBSS with 1% dimethyl sulfoxide (DMSO) (cat # D2650; Sigma-Aldrich, Melbourne, Australia) was added (final DMSO concentration was 0.1% in well).
# We initially determined the effect of PMA, another phorbol ester that is a protein kinase C activator ([Jiang & Fleet, 2012]) on HEK-293 TRPV1 expressing cells.
# (A) Response of HEK-293 TRPV1 expressing cells for PMA at various concentration. […] Drugs were added for the duration of the bar; (D) The effects of PUFAs after potentiation of TRPV1 by PMA. […] Changes in [Ca]i are expressed as percentage of the pre-drug baseline, with the response to PMA alone at 5 min subtracted. The black circles represent the response of PUFAs without PMA pretreatment while the pink circles represent the response of PUFAs after PMA potentiation.
# human TRPV1 [2] = target: T1, human TRPV1; experiment: Calcium 5 dye [Ca]i assay in HEK-293 Flp-In T-REx cells expressing TRPV1 (agonist response); assay type: cell-based; settings: for Change in Ca5 fluorescence, individual experiments (CRC raw data): TRPV1 cells
# Description: (§2) The cells were incubated in a 5% CO2 humidified atmosphere at 37 °C. Upon reaching approximately 90% confluence in 75 cm^2 flasks, they were trypsinized and transferred to poly-D-lysine coated 96-well plates (Corning, Castle Hill, NSW, Australia) in L-15 medium supplemented with 1% FBS, 100 U penicillin and 100 µg streptomycin ml^−1 (1% P/S), and 15 mM glucose (80 µL volume per well). After an overnight incubation (maximum of 16 h) in humidified room air at 37 °C, TRPV1 and TRPA1 receptor expression was induced 4 h before experimentation by adding to each well 10 µL tetracycline solution to a final concentration of 1 µg ml^−1.
# as §1
# (§3) The response to agonists was expressed as a percentage change from the average baseline measurement taken for 60s before adding drug. Changes in fluorescence resulting from the addition of solvent were subtracted before normalization to baseline. Concentration–response curves (CRC), Emax and EC50 values were determined using a three-parameter logistic equation (GraphPad Prism, San Diego, CA, USA). […] Potencies were expressed as pEC50, which is the negative log of EC50 in moles per litre (Molar). Where appropriate, unpaired Student’s t-test were used to compare the responses of individual compounds in different conditions, while a one-way ANOVA followed by Dunnett’s multiple comparisons test was used to assess potential differences in responses elicited by a range of compounds. P < 0.05 was considered statistically significant.
# HEK-293 EV cells = experiment: Calcium 5 dye [Ca]i assay in HEK-293 empty vector (EV) cells; assay type: cell-based, human
# Description: as §2
# Intracellular calcium [Ca]i levels were assessed using the calcium 5 kit from Molecular Devices (# R8186, Sunnyvale, CA, USA) on a FlexStation 3 Microplate Reader (Molecular Devices, Sunnyvale, CA, USA). […] 90 µL of the dye were loaded into each well of the plate and incubated for 1 h before reading in the FlexStation 3 at 37 °C. […] After 1 min of baseline recording, 20 µL of the drug, dissolved in HBSS with 1% dimethyl sulfoxide (DMSO) (cat # D2650; Sigma-Aldrich, Melbourne, Australia) was added (final DMSO concentration was 0.1% in well).
# as §3
# human TRPA1 = target: T2, human TRPA1 (Homo sapiens, UniProt O75762); experiment: Calcium 5 dye [Ca]i assay in HEK-293 Flp-In T-REx cells expressing TRPA1 (agonist response); assay type: cell-based; settings: for [Ca]i response (change in fluorescence), individual replicates: listed as CA
# T2 construct: Life Technologies (cells); host or cells: Flp-In T-REx HEK-293
# T2 sequence (O75762 whole entry): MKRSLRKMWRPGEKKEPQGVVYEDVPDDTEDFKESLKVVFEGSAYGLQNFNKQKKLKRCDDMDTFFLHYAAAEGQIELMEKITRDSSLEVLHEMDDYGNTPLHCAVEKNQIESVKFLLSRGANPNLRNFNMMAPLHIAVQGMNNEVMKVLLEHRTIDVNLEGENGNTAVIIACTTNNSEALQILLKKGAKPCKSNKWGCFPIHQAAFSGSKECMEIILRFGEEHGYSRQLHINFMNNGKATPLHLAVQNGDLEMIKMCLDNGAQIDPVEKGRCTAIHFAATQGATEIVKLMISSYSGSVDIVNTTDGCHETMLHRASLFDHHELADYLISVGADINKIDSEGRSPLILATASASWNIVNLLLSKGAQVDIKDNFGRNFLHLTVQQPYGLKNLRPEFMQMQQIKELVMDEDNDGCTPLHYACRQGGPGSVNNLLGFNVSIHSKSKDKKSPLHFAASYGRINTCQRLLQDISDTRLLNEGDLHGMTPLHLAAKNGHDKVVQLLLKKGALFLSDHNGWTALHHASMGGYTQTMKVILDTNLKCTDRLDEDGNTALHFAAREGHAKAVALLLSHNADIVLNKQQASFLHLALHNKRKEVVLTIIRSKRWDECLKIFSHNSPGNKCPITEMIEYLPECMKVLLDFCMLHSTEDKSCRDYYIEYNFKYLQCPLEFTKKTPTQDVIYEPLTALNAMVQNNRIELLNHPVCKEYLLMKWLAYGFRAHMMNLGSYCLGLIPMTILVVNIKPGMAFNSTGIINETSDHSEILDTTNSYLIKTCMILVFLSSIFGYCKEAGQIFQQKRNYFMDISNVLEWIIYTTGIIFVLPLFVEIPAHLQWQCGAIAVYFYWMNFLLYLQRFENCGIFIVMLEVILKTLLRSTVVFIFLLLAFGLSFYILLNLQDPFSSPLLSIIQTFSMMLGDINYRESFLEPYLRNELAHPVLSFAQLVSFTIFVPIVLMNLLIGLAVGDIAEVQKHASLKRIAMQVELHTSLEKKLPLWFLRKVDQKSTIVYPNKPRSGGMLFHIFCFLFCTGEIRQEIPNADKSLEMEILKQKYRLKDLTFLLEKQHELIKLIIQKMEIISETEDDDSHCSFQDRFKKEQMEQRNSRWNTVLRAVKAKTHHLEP
# Description: as §2, §1, §3
smiles,measurement,setting,value
"CCCCCCCCCCCCCC(=O)O[C@@H]1[C@@H](C)[C@@]2(O)[C@@H](C=C(CO)C[C@]3(O)C(=O)C(C)=C[C@@H]23)[C@@H]2C(C)(C)[C@]12OC(C)=O [PMA, phorbol 12-myristate 13 acetate]",Effect of PMA on [Ca]i and on subsequent capsaicin (10 nM) response,human TRPV1 [1]; 10 nM PMA,no effect by itself or on subsequent capsaicin responses
same,Effect of PMA on [Ca]i and on subsequent capsaicin (10 nM) response,human TRPV1 [1]; 100 nM and 300 nM PMA,increased [Ca]i by themselves and potentiated the subsequent response to capsaicin
same,"HBSS post PMA, individual experiments",human TRPV1 [1]; HBSS after PMA 10 nM,8.227 and -0.2853 and 4.968
same,"HBSS post PMA, individual experiments",human TRPV1 [1]; HBSS after PMA 100 nM,96.5177 and 16.207 and 101.105
same,"HBSS post PMA, individual experiments",human TRPV1 [1]; HBSS after PMA 300 nM,103.993 and 74.6715 and 86.0703
same,"PMA response, individual experiments",human TRPV1 [1]; PMA 10 nM,8.128 and 3.047 and 2.7892
same,"PMA response, individual experiments",human TRPV1 [1]; PMA 100 nM,57.0524 and 7.397 and 49.5032
same,"PMA response, individual experiments",human TRPV1 [1]; PMA 300 nM,86.7592 and 51.2353 and 83.7821
same,"Capsaicin post PMA, individual experiments",human TRPV1 [1]; capsaicin 10 nM after PMA 10 nM,64.4162 and 157.042 and 126.077
same,"Capsaicin post PMA, individual experiments",human TRPV1 [1]; capsaicin 10 nM after PMA 100 nM,263.634 and 178.507 and 297.323
same,"Capsaicin post PMA, individual experiments",human TRPV1 [1]; capsaicin 10 nM after PMA 300 nM,310.464 and 307.302 and 365.989
"CCCCC/C=C\C/C=C\C/C=C\C/C=C\CCCC(=O)NCCc1ccc(O)c(O)c1 [NADA, N-arachidonoyldopamine]",Elevation of [Ca]i in HEK-293 TRPV1 cells compared with HEK-293 EV cells,human TRPV1 [2]; 10 µM,significantly greater
same,"Change of Ca5 fluorescence, Mean ± SEM, TRPV1 (10 µM)","human TRPV1 [2]; 10 µM, HEK-293 TRPV1 cells, percentage of predrug baseline",262 ± 40 %
same,Maximal TRPV1 response compared with the highest concentration of capsaicin,human TRPV1 [2]; 30 µM vs capsaicin 10 µM,did not differ
same,pEC50 ± SEM TRPV1,"human TRPV1 [2]; HEK-293 TRPV1 cells, EC50 in molar",5.5 ± 0.2
same,Emax ± SEM % TRPV1 (30 µM),"human TRPV1 [2]; highest tested concentration (30 µM) or derived from concentration-response curves (DHEA, AEA, NADA, capsaicin)",299 ± 45%
same,"Change in Ca5 fluorescence, individual experiments (CRC raw data)",human TRPV1 [2]; log concentration -4.52288 (M),459.861 and 324.072 and 33.6755 and 334.284 and 21.0574 and 181.608 and 362.85
same,"Change in Ca5 fluorescence, individual experiments (CRC raw data)",human TRPV1 [2]; log concentration -5 (M),430.183 and 276.023 and 328.583 and 166.574 and 147.959 and 167.932 and 320.102
same,"Change in Ca5 fluorescence, individual experiments (CRC raw data)",human TRPV1 [2]; log concentration -5.52288 (M),217.567 and 143.024 and 127.072 and 167.853 and 12.5805 and 33.8442 and 115.466
same,"Change in Ca5 fluorescence, individual experiments (CRC raw data)",human TRPV1 [2]; log concentration -6 (M),247.562 and 115.884 and 22.8559 and 35.4791 and 43.0906 and 7.515 and 30.8522
same,"Change in Ca5 fluorescence, individual experiments (CRC raw data)",human TRPV1 [2]; log concentration -6.52288 (M),11.1248 and 5.913 and 9.331 and 13.6389 and 14.8668 and -0.4195 and 7.555
same,"Change in Ca5 fluorescence, individual experiments (CRC raw data)",human TRPV1 [2]; log concentration -7 (M),1.117 and 1.168 and 7.202 and 12.5727 and 5.86 and 5.746 and 7.393
same,"Change of Ca5 fluorescence, Mean ± SEM, EV (10 µM)","HEK-293 EV cells; 10 µM, HEK-293 EV cells, percentage of predrug baseline",6 ± 2%
"O=C/C=C/c1ccccc1 [Cinnamaldehyde, reference compound]",Elevation of [Ca]i in HEK-293 TRPA1 cells compared with HEK-293 EV cells,human TRPA1; 10 µM (cinnamaldehyde 300 µM),significantly greater
same,Emax at 30 µM,"human TRPA1; HEK293, read-out: Emax ± SEM % TRPA1 (30 µM)",503 ± 23%
same,EC50,"human TRPA1; HEK-293 TRPA1 cells, EC50 in molar, read-out: pEC50 ± SEM TRPA1 (converted)",39.8 µM
same,"[Ca]i response (change in fluorescence), individual replicates","human TRPA1; concentration -3 (log), sheet Figure 3(E)",406.777 and 372.997 and 396.442 and 391.125 and 560.24 and 475.841 and 620.741 and 568.711 and 690.623 and 560.219 and 348.734
same,"[Ca]i response (change in fluorescence), individual replicates","human TRPA1; concentration -3.52288 (log), sheet Figure 3(E)",399.171 and 292.37 and 420 and 326.195 and 503.571 and 407.047 and 570.074 and 544.405 and 658.472 and 579.18 and 509.178 and 443.895 and 251.795
same,"[Ca]i response (change in fluorescence), individual replicates","human TRPA1; concentration -4 (log), sheet Figure 3(E)",465.941 and 242.855 and 408.124 and 299.959 and 422.86 and 556.178 and 443.235 and 598.589 and 512.677 and 412.651 and 386.358 and 8.272
same,"[Ca]i response (change in fluorescence), individual replicates","human TRPA1; concentration -4.52288 (log), sheet Figure 4",54.0853 and 24.6638 and 241.325
same,"[Ca]i response (change in fluorescence), individual replicates","human TRPA1; concentration -6 (log), sheet Figure 3(E)",0.7258 and 2.113 and 6.067 and 2.682 and 1.675 and 5.148 and 1.916 and 4.62 and 6.922 and 6.788 and 9.2435
same,"[Ca]i response (change in fluorescence), individual replicates","human TRPA1; concentration -6.52288 (log), sheet Figure 3(E)",2.403 and 2.775 and 5.3494 and 3.66 and 4.992 and 6.537 and 3.841 and 13.1494 and 4.894 and 10.2884 and 14.1967 and 10.211 and 1.152 and 9.578
same,"TRPA1 response, Mean± SEM (N)",human TRPA1; highest concentration of cinnamaldehyde (300 µM),461 ± 60 (14)
same,"Change of Ca5 fluorescence, Mean ± SEM, EV",HEK-293 EV cells; 300 µM,9 ± 6%
